Assay results taken from publication PMC5936891, “A focused library synthesis and cytotoxicity of quinones derived from the natural product bolinaquinone” (Royal Society Open Science, 2018).

Legend:
U87 (glioblastoma) = assay: MTT in vitro growth inhibition assay, U87; format: cell-based; conditions: for inhibition at 25 µM: 25 µM of drug, 72 h, read-out: Percentage of Cell Growth Inhibition U87; for GI50: 72 h drug exposure
Source text: (§1) With the desired bolinaquinone analogues 12–43 in hand, we examined their cytotoxicity against a panel of 11 tumour cell lines: HT29 (colon carcinoma), U87 and SJ-G2 (glioblastoma), MCF-7 (breast carcinoma), A2780 (ovarian carcinoma), H460 (lung carcinoma), A431 (skin carcinoma), Du145 (prostate carcinoma), BE2-C (neuroblastoma), MIA (pancreatic carcinoma), SMA (spontaneous murine astrocytoma) and a normal breast cell line (MCF10A). The inclusion of the MCF-10A cell line allowed a determination of a crude measure of relative toxicity while noting that the ultimate arbiter of toxicity requires in vivo evaluation. All analogues were initially screened at a 25 µM drug concentration.
(§2) Stock solutions were prepared as follows and stored at −20°C: drugs were stored as 40 mM solutions in DMSO. All cell lines were cultured in a humidified atmosphere 5% CO2 at 37°C. The cancer cell lines were maintained in Dulbecco's modified Eagle's medium (DMEM) (Trace Biosciences, Australia) supplemented with 10% fetal bovine serum, 10 mM sodium bicarbonate, penicillin (100 IU ml^−1), streptomycin (100 µg ml^−1) and glutamine (4 mM). The non-cancer MCF10A cell line was cultured in DMEM:F12 (1 : 1) cell culture media, 5% heat-inactivated horse serum, supplemented with penicillin (50 IU ml^−1), streptomycin (50 µg ml^−1), 20 mM Hepes, L-glutamine (2 mM), epidermal growth factor (20 ng ml^−1), hydrocortisone (500 ng ml^−1), cholera toxin (100 ng ml^−1) and insulin (10 ug ml^−1).
(§3) Cells in logarithmic growth were transferred to 96-well plates. Cytotoxicity was determined by plating cells in duplicate in 100 µl medium at a density of 2500–4000 cells per well. On day 0 (24 h after plating), when the cells were in logarithmic growth, 100 μl of medium with or without the test agent was added to each well. After 72 h, drug exposure growth inhibitory effects were evaluated using the MTT (3-[4,5-dimethylthiazol-2-yl]-2,5-diphenyl-tetrazolium bromide) assay and the absorbance read at 540 nm. Percentage growth inhibition was determined at a fixed drug concentration of 25 µM. A value of 100% is indicative of complete cell growth inhibition. Those analogues showing appreciable percentage growth inhibition underwent further dose–response analysis allowing for the calculation of a GI50 value. This value is the drug concentration at which cell growth is 50% inhibited based on the difference between the optical density values on day 0 and those at the end of drug exposure.

[1] = test system: SMA (spontaneous murine astrocytoma); assay: MTT in vitro growth inhibition assay, SMA; format: cell-based; conditions: Mus musculus; for inhibition at 25 µM: 25 µM of drug, 72 h, read-out: Percentage of Cell Growth Inhibition SMA; for GI50: 72 h drug exposure
Source text: as §1, §2, §3

MCF-7 (breast carcinoma) = assay: MTT in vitro growth inhibition assay, MCF-7; format: cell-based; conditions: Homo sapiens; for inhibition at 25 µM: MCF7, 25 µM of drug, 72 h, read-out: Percentage of Cell Growth Inhibition MCF-7; for GI50: MCF7, 72 h drug exposure
Source text: as §1, §2, §3

[2] = test system: A2780 (ovarian carcinoma); assay: MTT in vitro growth inhibition assay, A2780; format: cell-based; conditions: Homo sapiens; for inhibition at 25 µM: 25 µM of drug, 72 h, read-out: Percentage of Cell Growth Inhibition A2780; for GI50: 72 h drug exposure
Source text: as §1, §2, §3

[3] = test system: MCF10A (normal breast cell line); assay: MTT in vitro growth inhibition assay, MCF10A; format: cell-based; conditions: Homo sapiens, MCF-10A; for inhibition at 25 µM: 25 µM of drug, 72 h, read-out: Percentage of Cell Growth Inhibition MCF10A; for GI50: normal breast cell line, 72 h drug exposure
Source text: as §1, §2, §3

HT29 (colon carcinoma) = assay: MTT in vitro growth inhibition assay, HT29; format: cell-based; conditions: Homo sapiens; for inhibition at 25 µM: HT-29, 25 µM of drug, 72 h, read-out: Percentage of Cell Growth Inhibition HT29; for GI50: HT-29, 72 h drug exposure
Source text: as §1, §2, §3

H460 (lung carcinoma) = assay: MTT in vitro growth inhibition assay, H460; format: cell-based; conditions: Homo sapiens; for inhibition at 25 µM: NCI-H460, 25 µM of drug, 72 h, read-out: Percentage of Cell Growth Inhibition H460; for GI50: NCI-H460, 72 h drug exposure
Source text: as §1, §2, §3

A431 (skin carcinoma) = assay: MTT in vitro growth inhibition assay, A431; format: cell-based; conditions: Homo sapiens; for inhibition at 25 µM: A-431, 25 µM of drug, 72 h, read-out: Percentage of Cell Growth Inhibition A431; for GI50: A-431, 72 h, 72 h drug exposure
Source text: as §1, §2, §3

SJ-G2 (glioblastoma) = assay: MTT in vitro growth inhibition assay, SJ-G2; format: cell-based; conditions: for inhibition at 25 µM: 25 µM of drug, 72 h, read-out: Percentage of Cell Growth Inhibition SJ-G2; for GI50: 72 h drug exposure
Source text: as §1, §2, §3

BE2-C (neuroblastoma) = assay: MTT in vitro growth inhibition assay, BE2-C; format: cell-based; conditions: Homo sapiens, BE(2)-C, 72 h; for inhibition at 25 µM: 25 µM of drug, read-out: Percentage of Cell Growth Inhibition BE2-C; for GI50: 72 h drug exposure
Source text: as §1, §2, §3

[4] = test system: Du145 (prostate carcinoma); assay: MTT in vitro growth inhibition assay, Du145; format: cell-based; conditions: Homo sapiens; for inhibition at 25 µM: DU-145, 25 µM of drug, 72 h, read-out: Percentage of Cell Growth Inhibition Du145; for GI50: DU-145, 72 h, 72 h drug exposure
Source text: as §1, §2, §3

[5] = test system: MIA (pancreatic carcinoma); assay: MTT in vitro growth inhibition assay, MIA; format: cell-based; conditions: for inhibition at 25 µM: 25 µM of drug, 72 h, read-out: Percentage of Cell Growth Inhibition MIA; for GI50: 72 h drug exposure
Source text: as §1, §2, §3

Compound	inhibition at 25 µM (U87 (glioblastoma))	GI50 (U87 (glioblastoma))	inhibition at 25 µM [1]	GI50 [1]	inhibition at 25 µM (MCF-7 (breast carcinoma))	GI50 (MCF-7 (breast carcinoma))	inhibition at 25 µM [2]	GI50 [2]	melting point	inhibition at 25 µM [3]	GI50 [3]	inhibition at 25 µM (HT29 (colon carcinoma))	inhibition at 25 µM (H460 (lung carcinoma))	inhibition at 25 µM (A431 (skin carcinoma))	inhibition at 25 µM (SJ-G2 (glioblastoma))	GI50 (SJ-G2 (glioblastoma))	inhibition at 25 µM (BE2-C (neuroblastoma))	GI50 (BE2-C (neuroblastoma))	inhibition at 25 µM [4]	inhibition at 25 µM [5]	further results
COC1=C(c2ccccc2)C(=O)C(OC)=C(c2ccccc2)C1=O [compound 30, 2,5-Dimethoxy-3,6-diphenylcyclohexa-2,5-diene-1,4-dione]	52 ± 5%	30 ± 1.8 µM	> 100%	6.2 ± 0.3 µM	> 100%	7 ± 0.98 µM	> 100%	5.9 µM	150 to 152 °C	> 100%	8.9 ± 1.6 µM	73 ± 4%	26 ± 8%	59 ± 6%	> 100%	12 ± 0.9 µM	> 100%	7 ± 0.1 µM	35 ± 5%	63 ± 5%	GI50 (HT29 (colon carcinoma)): 16 ± 1.2 µM; GI50 (H460 (lung carcinoma)): > 50 µM; GI50 (A431 (skin carcinoma)): > 50 µM; GI50 [4]: > 50 µM; GI50 [5]: 20 ± 2 µM
CCCNC1=CC(=O)C(NCCC)=C(c2cccc3ccccc23)C1=O [compound 39, 3-(Naphthalene-1-yl)-2,5-bis-(propylamino)cyclohexa-2,5-diene-1,4-dione]	75 ± 1%		54 ± 11%		69 ± 1%		78 ± 2%		134 to 137 °C	78 ± 1%		76 ± 2%	59 ± 3%	76 ± 3%	59 ± 1%		73 ± 3%		75 ± 1%	69 ± 2%	
COC1=C(c2ccc3ccccc3c2)C(=O)C(OC)=C(c2ccccc2-c2ccccc2)C1=O [compound 36, 2,5-Dimethoxy-3-(biaryl-2-yl)-6-(naphthalene-3-yl)cyclohexa-2,5-diene-1,4-dione]	57 ± 2%	20 ± 0.9 µM	84 ± 7%	10 ± 0.3 µM	> 100%	5.1 ± 0.5 µM	87 ± 2%	9 ± 0.6 µM	113 to 115 °C	77 ± 4%	15 ± 2.2 µM	> 100%	65 ± 3%	78 ± 2%	78 ± 5%	13 ± 1.5 µM	> 100%	8.7 ± 0.7 µM	51 ± 3%	78 ± 2%	GI50 (HT29 (colon carcinoma)): 11 ± 0.9 µM; GI50 (H460 (lung carcinoma)): 18 ± 2.3 µM; GI50 (A431 (skin carcinoma)): 15 ± 1.5 µM; GI50 [4]: 21 ± 0.2 µM; GI50 [5]: 12 ± 0.7 µM
CCCCc1ccc(C2=C(OC)C(=O)C(c3ccc(CCCC)cc3)=C(OC)C2=O)cc1 [compound 31, 2,5-Bis(4-butylphenyl)-3,6-dimethoxycyclohexa-2,5-diene-1,4-dione]	53 ± 3%		54 ± 4%		73 ± 5%		55 ± 9%		177 to 179 °C	66 ± 2%		73 ± 3%	52 ± 9%	75 ± 2%	56 ± 6%		68 ± 3%		83 ± 2%	72 ± 2%	
COC1=CC(=O)C(OC)=C(c2ccc(O)cc2)C1=O [compound 16, 3-(4-Hydroxyphenyl)-2,5-dimethoxycyclohexa-2,5-diene-1,4-dione]	< 10%			50 ± 3.2 µM	15%		< 10%	35 ± 1.9 µM				11 ± 3%	< 10%	> 100%	21 ± 9%	43 ± 1.5 µM	< 10%	~11 µM	21 ± 6%	< 10%	
COC1=C(c2ccc3ccccc3c2)C(=O)C(OC)=C(c2cccc3ccccc23)C1=O [compound 33, 2,5-Dimethoxy-3-(naphthalene-1-yl)-6-(naphthalene-3-yl)cyclohexa-2,5-diene-2,5-diene-1,4-dione]	43 ± 11%	26 ± 2.1 µM	81 ± 10%	11 ± 0.33 µM	> 100%	5.6 ± 0.7 µM	98 ± 0.5%	6.9 ± 1.2 µM	163 to 165 °C	86 ± 3%	13 ± 2.2 µM	53 ± 2%	45 ± 2%	57 ± 3%	92 ± 5%	14 ± 1.9 µM	81 ± 1%	12 ± 0.9 µM	40 ± 1%	72 ± 2%	GI50 (HT29 (colon carcinoma)): 23 ± 1.2 µM; GI50 (H460 (lung carcinoma)): 28 ± 2.7 µM; GI50 (A431 (skin carcinoma)): 23 ± 3.4 µM; GI50 [4]: 31 µM; GI50 [5]: 15 ± 0.9 µM
COC1=CC(=O)C(OC)=C(c2ccc(OC)cc2OC)C1=O [compound 20, 2,5-Dimethoxy-3-(2,4-dimethoxyphenyl)cyclohexa-2,5-diene-1,4-dione]	17 ± 3%		35 ± 8%	33 ± 3.5 µM	20 ± 3%	34 ± 3 µM	48 ± 9%	25 ± 3 µM		14 ± 6%	38 ± 5 µM	15 ± 2%	10 ± 5%	11 ± 4%	32 ± 6%	31 ± 1.5 µM	> 100%	~11 µM	< 10%	< 10%	
COC1=CC(=O)C(OC)=C(c2ccc(C)cc2)C1=O [compound 13, 2,5-Dimethoxy-3-p-tolylcyclohexa-2,5-diene-1,4-dione]	13 ± 4%	> 50 µM	45 ± 9%	33 ± 2.3 µM	23 ± 3%	37 ± 1 µM	72 ± 10%	20 ± 1.2 µM		10 ± 5%	50 ± 9.2 µM	10 ± 4%	13 ± 3%	< 10%	41 ± 18%	33 ± 1.9 µM	> 100%	12 ± 1.2 µM	13 ± 2%	< 10%	GI50 (HT29 (colon carcinoma)): > 50 µM; GI50 (H460 (lung carcinoma)): > 50 µM; GI50 (A431 (skin carcinoma)): > 50 µM; GI50 [5]: > 50 µM
